IC50 data for 20 compounds are collected here from patent US10479795B2 (Incyte Corporation, priority 2016, dated 2019).

Structures are written as SMILES. Structures can show the parent of a compound that is named as a salt. Where two headings read alike, the source gives them in different places. Some results are limits rather than exact numbers.

Assay [1] concerns Phosphorylated Ribosomal Protein S6 (RPS6). Description: THP-1 RPS6 ELISA Assay. It counts as cell-based, Human. To be noted: THP-1 cells, read-out: PI3Kγ_THP1_RPS6_ELISA IC50. The procedure: To measure the Phosphorylated Ribosomal Protein S6 (RPS6) in cell lysates, THP-1 cells (Human Acute Monocytic Leukemia) are purchased from ATCC (Manassas, Va.) and maintained in RPMI with 10% FBS (Gibco/Life Technologies, Carlsbad, Calif.). For the assay, THP-1 cells are serum starved overnight in RPMI, then plated in RPMI (2×10^5 cells/well in 90 μL) into 96-well flat-bottom tissue culture treated plates (Corning, Corning, N.Y.), in the presence or absence of a concentration range of test compounds. Covered plates are incubated for 2 hours at 37° C., 5% CO2 then treated with or without 10 nM MCP-1 (MYBioSource, San Diego, Calif.) for 15 minutes at 37° C., 5% CO2. Plates are centrifuged at 1600 RPM and supernatants are removed. Cells are lysed in Lysis Buffer (Cell Signaling, Danvers, Mass.) with Protease Inhibitor (Calbiochem/EMD, Germany), PMSF (Sigma, St Louis Mo.), HALTS (Thermo Fisher, Rockford, Ill.) for 30 min on wet ice. Cell lysates are frozen at −80° C. before testing. The lysates are tested in the Human/Mouse/Rat Phospho-RPS6 ELISA (R&D Systems, Inc. Minn, Minn.). The plate is measured using a microplate reader (SpectraMax M5 —Molecular Devices, LLC Sunnyvale, Calif.) set to 450 nm with a wavelength correction of 540. IC50 determination is performed by fitting the curve of inhibitor percent inhibition versus the log of the inhibitor concentration using the GraphPad Prism 5.0 software.
On the technique in general: An ELISA detects its analyte on a solid surface through an enzyme-linked reagent.

Assay [2] addresses PI3Kδ (p110δ/p85α) Recombinant Human Protein (Homo sapiens (Human), UniProt O00329). Kind of assay: PI3Kδ Scintillation Proximity Assay. Format: biochemical. In short, it runs like this: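 Kinase reaction run at room temperature in 20 mM MOPS pH 6.7, 10 mM MgCl2, 5 mM DTT, 0.03% CHAPS with 20 μM PIP2, 2 μM ATP plus [γ-33P]ATP, 3.4 nM enzyme, 2% DMSO; 120 min. Quenched with WGA SPA beads/EDTA, counted by scintillation; IC50 from % solvent-control activity vs log concentration.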
For orientation: SPA uses beads or plates that emit light when radiolabelled molecules are held near them.

In assay [3] the target is PI3Kγ (p110γ) Recombinant Human Protein (Homo sapiens (Human), UniProt P48736). Kind of assay: PI3K-γ Scintillation Proximity Assay. Format: biochemical. The conditions noted are these: read-out: PI3Kγ IC50. Put shortly:
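Recombinant human p110γ assayed at room temperature in 20 mM MOPS pH 6.7, 10 mM MgCl2, 5 mM DTT, 0.03% CHAPS, 2% DMSO, with 20 μM PIP2 and 2 μM ATP plus [γ-33P]ATP. Product captured on WGA SPA beads overnight and counted; IC50 fitted from % of solvent-control activity versus log inhibitor concentration.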

Usually IC50 stands for the concentration that gives 50% inhibition.

Sequence of PI3Kδ (p110δ/p85α) Recombinant Human Protein (O00329 whole entry): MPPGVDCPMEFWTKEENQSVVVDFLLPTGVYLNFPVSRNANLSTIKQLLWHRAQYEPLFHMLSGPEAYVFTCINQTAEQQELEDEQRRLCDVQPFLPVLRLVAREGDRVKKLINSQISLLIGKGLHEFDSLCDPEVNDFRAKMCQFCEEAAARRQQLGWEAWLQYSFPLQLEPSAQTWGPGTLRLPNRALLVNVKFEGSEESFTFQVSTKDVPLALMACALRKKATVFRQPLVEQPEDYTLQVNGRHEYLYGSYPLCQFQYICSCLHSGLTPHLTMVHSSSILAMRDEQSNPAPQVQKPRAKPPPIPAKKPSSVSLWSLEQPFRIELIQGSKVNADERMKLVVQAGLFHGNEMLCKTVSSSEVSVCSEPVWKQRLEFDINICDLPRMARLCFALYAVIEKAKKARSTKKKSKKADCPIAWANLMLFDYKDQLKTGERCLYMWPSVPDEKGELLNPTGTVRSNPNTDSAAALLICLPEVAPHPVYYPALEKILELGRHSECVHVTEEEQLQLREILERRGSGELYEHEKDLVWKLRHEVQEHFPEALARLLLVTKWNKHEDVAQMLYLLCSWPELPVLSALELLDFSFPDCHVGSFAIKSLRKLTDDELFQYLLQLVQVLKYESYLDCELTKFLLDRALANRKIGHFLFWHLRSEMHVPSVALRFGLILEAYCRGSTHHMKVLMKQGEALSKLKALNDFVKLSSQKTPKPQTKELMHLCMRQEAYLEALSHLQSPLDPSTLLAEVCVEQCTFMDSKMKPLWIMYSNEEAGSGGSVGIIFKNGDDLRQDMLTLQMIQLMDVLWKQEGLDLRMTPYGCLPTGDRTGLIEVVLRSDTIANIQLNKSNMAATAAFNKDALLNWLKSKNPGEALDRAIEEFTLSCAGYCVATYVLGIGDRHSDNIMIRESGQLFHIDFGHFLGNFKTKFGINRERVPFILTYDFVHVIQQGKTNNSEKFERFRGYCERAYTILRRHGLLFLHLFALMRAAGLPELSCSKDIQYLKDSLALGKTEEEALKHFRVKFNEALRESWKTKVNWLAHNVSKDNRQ
Sequence of PI3Kδ (p110δ/p85α) Recombinant Human Protein (P27986 whole entry partner): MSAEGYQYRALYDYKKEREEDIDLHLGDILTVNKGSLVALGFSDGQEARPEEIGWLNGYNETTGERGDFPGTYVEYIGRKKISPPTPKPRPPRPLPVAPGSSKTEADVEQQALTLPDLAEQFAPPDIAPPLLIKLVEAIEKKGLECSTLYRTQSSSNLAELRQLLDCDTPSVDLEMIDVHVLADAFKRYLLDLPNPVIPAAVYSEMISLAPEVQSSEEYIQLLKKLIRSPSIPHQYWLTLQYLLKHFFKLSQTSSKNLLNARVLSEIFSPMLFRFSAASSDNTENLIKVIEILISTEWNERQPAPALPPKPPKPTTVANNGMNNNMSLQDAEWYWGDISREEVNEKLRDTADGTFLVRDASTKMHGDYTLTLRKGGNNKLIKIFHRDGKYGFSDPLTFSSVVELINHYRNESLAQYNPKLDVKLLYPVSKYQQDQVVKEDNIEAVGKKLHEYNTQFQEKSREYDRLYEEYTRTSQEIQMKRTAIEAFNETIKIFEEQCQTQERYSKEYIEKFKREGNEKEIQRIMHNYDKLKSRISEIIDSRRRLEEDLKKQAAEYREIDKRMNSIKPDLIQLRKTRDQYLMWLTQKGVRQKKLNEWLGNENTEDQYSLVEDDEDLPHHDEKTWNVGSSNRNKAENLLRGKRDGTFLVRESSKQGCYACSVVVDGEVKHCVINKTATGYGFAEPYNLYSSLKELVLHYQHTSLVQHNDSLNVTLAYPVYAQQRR
Sequence of PI3Kγ (p110γ) Recombinant Human Protein (P48736 whole entry): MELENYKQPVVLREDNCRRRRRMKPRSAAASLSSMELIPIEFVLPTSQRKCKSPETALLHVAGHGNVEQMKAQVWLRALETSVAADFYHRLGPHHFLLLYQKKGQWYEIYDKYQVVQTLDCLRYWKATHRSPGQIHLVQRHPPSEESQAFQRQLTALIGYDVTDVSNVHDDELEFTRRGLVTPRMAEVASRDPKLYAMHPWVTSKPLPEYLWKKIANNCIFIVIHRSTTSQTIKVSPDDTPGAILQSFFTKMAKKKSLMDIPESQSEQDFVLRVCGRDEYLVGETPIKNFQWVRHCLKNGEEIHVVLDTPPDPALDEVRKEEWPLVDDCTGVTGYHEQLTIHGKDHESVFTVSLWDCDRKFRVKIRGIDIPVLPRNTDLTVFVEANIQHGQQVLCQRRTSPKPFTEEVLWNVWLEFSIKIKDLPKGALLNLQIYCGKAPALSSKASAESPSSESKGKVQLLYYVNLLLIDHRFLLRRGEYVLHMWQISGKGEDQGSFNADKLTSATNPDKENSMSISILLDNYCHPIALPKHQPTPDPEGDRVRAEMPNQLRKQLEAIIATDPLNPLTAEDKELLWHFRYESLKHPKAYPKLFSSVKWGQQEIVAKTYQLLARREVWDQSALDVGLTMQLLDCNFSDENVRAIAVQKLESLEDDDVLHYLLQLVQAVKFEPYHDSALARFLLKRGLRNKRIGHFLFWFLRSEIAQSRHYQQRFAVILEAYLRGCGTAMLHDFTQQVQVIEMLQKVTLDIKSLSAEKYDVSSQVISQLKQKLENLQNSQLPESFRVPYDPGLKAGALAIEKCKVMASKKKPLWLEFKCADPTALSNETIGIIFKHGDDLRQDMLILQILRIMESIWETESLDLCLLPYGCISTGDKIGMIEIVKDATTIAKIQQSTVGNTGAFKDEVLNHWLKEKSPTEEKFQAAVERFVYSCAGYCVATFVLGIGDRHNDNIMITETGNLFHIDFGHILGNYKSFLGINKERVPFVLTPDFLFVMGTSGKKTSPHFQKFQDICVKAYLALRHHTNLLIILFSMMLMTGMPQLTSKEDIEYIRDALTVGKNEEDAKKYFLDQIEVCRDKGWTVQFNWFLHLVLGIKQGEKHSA

In the case of `CNC(=O)c1ccc(F)c(-c2cn3c(-c4cc(S(=O)(=O)N[C@H]5CC[C@H](O)CC5)ccc4C)cnc3c(N)n2)c1` [Example 31, 3-[8-Amino-3-(5-{[(trans-4-hydroxycyclohexyl)amino]sulfonyl}-2-methylphenyl)imidazo[1,2-a]pyrazin-6-yl]-4-fluoro-N-methylbenzamide], the values for the IC50 in assay [1] (Homo sapiens), in assay [2] and in assay [3] were above 1000 nM, below 100 nM and below 100 nM, respectively.

In the case of `Cc1ccc(S(=O)(=O)NC23CC(CO)(C2)C3)cc1-c1cnc2c(N)nc(C(F)(F)F)nn12` [Example 319, 3-(4-Amino-2-(trifluoromethyl)imidazo[1,2-f][1,2,4]triazin-7-yl)-N-(3-(hydroxymethyl)bicyclo[1.1.1]pentan-1-yl)-4-methylbenzenesulfonamide], the figures for the concentration for half-maximal inhibition (IC50) in assay [1], in assay [2] and in assay [3] were below 100 nM, 100 to 500 nM and below 100 nM, respectively.

For `Cc1nc(N)c2ncc(-c3cc(S(=O)(=O)NC45CC(C#N)(C4)C5)ccc3C)n2n1` [Example 270, 3-(4-Amino-2-methylimidazo[1,2-f][1,2,4]triazin-7-yl)-N-(3-cyanobicyclo[1.1.1]pentan-1-yl)-4-methylbenzenesulfonamide trifluoroacetate salt], the concentration for half-maximal inhibition (IC50) in assay [1] is below 100 nM; in assay [2] it was 100 to 500 nM; in assay [3], below 100 nM.

In the case of `O=C(O)C(F)(F)F.[2H]C([2H])([2H])c1ccc(S(=O)(=O)NC23CCC(CO)(C2)C3)cc1-c1cnc2c(N)nc(C(F)(F)F)cn12` [Example 390, 3-(8-Amino-6-(trifluoromethyl)imidazo[1,2-a]pyrazin-3-yl)-N-(4-(hydroxymethyl)bicyclo[2.1.1]hexan-1-yl)-4-(methyl-d3)benzenesulfonamide trifluoroacetate salt], the half-maximal inhibitory concentration (IC50) in assay [1] (Homo sapiens) was 100 to 500 nM; in assay [2] it was 100 to 500 nM; in assay [3], below 100 nM.

As to `Cc1ccc(S(=O)(=O)N[C@H]2CC[C@](C)(O)CC2)cc1-c1cnc2c(N)ccnn12` [Example 518, 3-(8-Aminoimidazo[1,2-b]pyridazin-3-yl)-N-((1r,4r)-4-hydroxy-4-methylcyclohexyl)-4-methylbenzenesulfonamide], the IC50 in assay [1] (Homo sapiens) fell in the range of 100 to 500 nM; in assay [2], 500 to 2000 nM; in assay [3], 100 to 500 nM.

With `Cc1ccc(S(=O)(=O)N2CC(F)C2)cc1-c1cnc2c(N)ncnn12` [Example 131, 7-(5-((3-fluoroazetidin-1-yl)sulfonyl)-2-methylphenyl)imidazo[2,1-f][1,2,4]triazin-4-amine], the values for the half-maximal inhibitory concentration (IC50) in assay [1] (Homo sapiens), in assay [2] and in assay [3] were above 1000 nM, 500 to 2000 nM and 100 to 500 nM, respectively.

Consider `COc1cnccc1-c1cn2c(-c3cc(S(C)(=O)=O)ccc3C)cnc2c(N)n1` [Example 485, 6-(3-Methoxypyridin-4-yl)-3-(2-methyl-5-(methylsulfonyl)phenyl)imidazo[1,2-a]pyrazin-8-amine trifluoroacetate], for which the IC50 was 100 to 500 nM in assay [1] (Homo sapiens), 100 to 500 nM in assay [2] and below 100 nM in assay [3].

Regarding `Cc1ccc(S(=O)(=O)N[C@H]2CC[C@H](O)CC2)cc1-c1cnc2c(N)nc(C(F)(F)F)cn12` [Example 310, 3-(8-Amino-6-(trifluoromethyl)imidazo[1,2-a]pyrazin-3-yl)-N-(trans-4-hydroxycyclohexyl)-4-methylbenzenesulfonamide], the IC50 in assay [1] (Homo sapiens) was below 100 nM; in assay [2] it was 100 to 500 nM; in assay [3], below 100 nM.

For the compound `Cc1ccc(S(=O)(=O)NC23CC(CN4CCOCC4)(C2)C3)cc1-c1cnc2c(N)nc(C(F)(F)F)cn12` [Example 289, 3-(8-Amino-6-(trifluoromethyl)imidazo[1,2-a]pyrazin-3-yl)-4-methyl-N-(3-(morpholinomethyl)bicyclo[1.1.1]pentan-1-yl)benzenesulfonamide trifluoroacetate salt], the 50% inhibitory concentration (IC50) in assay [1] (Homo sapiens) was 100 to 500 nM; in assay [2], 100 to 500 nM; in assay [3], below 100 nM.

As to `Cc1ccc(S(=O)(=O)NC23CCC(CN4CC(F)(F)C4)(CC2)OC3)cc1-c1cnc2c(N)ncnn12` [Example 435, 3-(4-Aminoimidazo[1,2-f][1,2,4]triazin-7-yl)-N-(1-((3,3-difluoroazetidin-1-yl)methyl)-2-oxabicyclo[2.2.2]octan-4-yl)-4-methylbenzenesulfonamide trifluoroacetate salt], the values for the IC50 in assay [1] (Homo sapiens), in assay [2] and in assay [3] were 500 to 1000 nM, 100 to 500 nM and below 100 nM, respectively.

As to `N#CC12CCC(NS(=O)(=O)c3cccc(-c4cnc5c(N)ncnn45)c3)(C1)C2` [Example 364, 3-(4-Aminoimidazo[1,2-f][1,2,4]triazin-7-yl)-N-(4-cyanobicyclo[2.1.1]hexan-1-yl)benzenesulfonamide trifluoroacetate salt], the values for the IC50 in assay [1], in assay [2] and in assay [3] were below 100 nM, 100 to 500 nM and below 100 nM, respectively.

For `O=C(O)C(F)(F)F.[2H]C([2H])([2H])c1ccc(S(=O)(=O)NC23CCC(C#N)(C2)C3)cc1-c1cnc2c(N)nc(C)nn12` [Example 386, 3-(4-Amino-2-methylimidazo[2,1-f][1,2,4]triazin-7-yl)-N-(4-cyanobicyclo[2.1.1]hexan-1-yl)-4-(methyl-d3)benzenesulfonamide trifluoroacetate salt], the IC50 in assay [1] (Homo sapiens) is below 100 nM; in assay [2], 100 to 500 nM; in assay [3], below 100 nM.

For `Cc1ccc(S(=O)(=O)NC2CN(C)C2)cc1-c1cnc2c(N)nc(C(F)(F)F)nn12` [Example 322, 3-(4-Amino-2-(trifluoromethyl)imidazo[1,2-f][1,2,4]triazin-7-yl)-4-methyl-N-(1-methylazetidin-3-yl)benzenesulfonamide], the IC50 was below 100 nM in assay [1], 100 to 500 nM in assay [2] and below 100 nM in assay [3].

With `N#CC12CCC(NS(=O)(=O)c3cccc(-c4cnc5c(N)nc(C(F)(F)F)cn45)c3)(C1)C2` [Example 395, 3-(8-Amino-6-(trifluoromethyl)imidazo[1,2-a]pyrazin-3-yl)-N-(4-cyanobicyclo[2.1.1]hexan-1-yl)benzenesulfonamide trifluoroacetate salt], the IC50 in assay [1] (Homo sapiens) is 100 to 500 nM; in assay [2], 100 to 500 nM; in assay [3] it was below 100 nM.

With `Cc1ccc(S(=O)(=O)NC23CC(CC#N)(C2)C3)cc1-c1cnc2c(N)ncnn12` [Example 91, trifluoroacetate salt], the IC50 in assay [1] was 100 to 500 nM; in assay [2], 100 to 500 nM; in assay [3] it was below 100 nM.

As for `CCS(=O)(=O)Nc1cc(-c2cnc3c(N)cccn23)cnc1F` [Example 2, N-[5-(8-Aminoimidazo[1,2-a]pyridin-3-yl)-2-fluoropyridin-3-yl]ethanesulfonamide bis(trifluoroacetate)], the 50% inhibitory concentration (IC50) is above 1000 nM in assay [1] (Homo sapiens), 500 to 2000 nM in assay [2] and 100 to 500 nM in assay [3].

On to `Cc1ccc(S(=O)(=O)CC2CCOCC2)cc1-c1cnc2c(N)ncnn12` [Example 492, 7-(2-Methyl-5-(((tetrahydro-2H-pyran-4-yl)methyl)sulfonyl)phenyl)imidazo[2,1-f][1,2,4]triazin-4-amine trifluoroacetate], for which the 50% inhibitory concentration (IC50) in assay [1] (Homo sapiens) is 500 to 1000 nM; in assay [2], 500 to 2000 nM; in assay [3], below 100 nM.

As for `Cc1ccc(S(=O)(=O)N2CC3CCOCC3C2)cc1-c1cnc2c(N)ncnn12` (stereo not drawn) [Example 210, 7-(5-((Hexahydropyrano[3,4-c]pyrrol-2(3H)-yl)sulfonyl)-2-methylphenyl)imidazo[2,1-f][1,2,4]triazin-4-amine], the results for the IC50 in assay [1] (Homo sapiens), in assay [2] and in assay [3] were 100 to 500 nM, 100 to 500 nM and below 100 nM, respectively.

In the case of `Cc1ccc(S(=O)(=O)N2CC3(COC3)C2)cc1-c1cnc2c(N)ncnn12` [Example 143, 7-(5-((2-oxa-6-azaspiro[3.3]heptan-6-yl)sulfonyl)-2-methylphenyl)imidazo[2,1-f][1,2,4]triazin-4-amine], the results for the IC50 in assay [1] (Homo sapiens), in assay [2] and in assay [3] were above 1000 nM, 100 to 500 nM and below 100 nM, respectively.

Take `Cc1ccc(S(=O)(=O)N[C@H]2CC[C@H](O)CC2)cc1-c1cnc2c(N)nc(-c3ccncc3)cn12` [Example 25, 3-(8-Amio-6-pyridin-4-ylimidazo[1,2-a]pyrazin-3-yl)-N-(trans-4-hydroxycyclohexyl)-4-methylbenzenesulfonamide]: the results for the IC50 in assay [1] (Homo sapiens), in assay [2] and in assay [3] were 100 to 500 nM, 100 to 500 nM and below 100 nM, respectively.
